Calls of active or inactive are those of the source. How the calls were made is not given here.
System: CCRIS mutagenicity, Ames/micronucleus/aberration tests
Test: CCRIS mutagenicity studies
[1] = Test System: AMES SALMONELLA TYPHIMURIUM, Strain/Indicator: TA98, Metabolic Activation: RAT, LIVER, S-9, AROCLOR 1254, Method: STANDARD PLATE
[2] = Test System: AMES SALMONELLA TYPHIMURIUM, Strain/Indicator: TA102, Metabolic Activation: NONE, Method: STANDARD PLATE
[3] = Test System: AMES SALMONELLA TYPHIMURIUM, Strain/Indicator: TA98, Metabolic Activation: NONE, Method: STANDARD PLATE
[4] = Test System: AMES SALMONELLA TYPHIMURIUM, Strain/Indicator: TA100, Metabolic Activation: NONE, Method: STANDARD PLATE
[5] = Test System: AMES SALMONELLA TYPHIMURIUM, Strain/Indicator: TA98, Metabolic Activation: NONE, Method: PREINCUBATION
[6] = Test System: AMES SALMONELLA TYPHIMURIUM, Strain/Indicator: TA98, Metabolic Activation: RAT LIVER S-9, PHENOBARBITAL AND BETA-NAPHTHOFLAVONE, Method: PREINCUBATION
[7] = Test System: AMES SALMONELLA TYPHIMURIUM, Strain/Indicator: TA100, Metabolic Activation: NONE, Method: PREINCUBATION
[8] = Test System: AMES SALMONELLA TYPHIMURIUM, Strain/Indicator: TA100, Metabolic Activation: RAT LIVER S-9, PHENOBARBITAL AND BETA-NAPHTHOFLAVONE, Method: PREINCUBATION
[9] = Test System: AMES SALMONELLA TYPHIMURIUM, Strain/Indicator: TA1535, Metabolic Activation: NONE, Method: PREINCUBATION
[10] = Test System: AMES SALMONELLA TYPHIMURIUM, Strain/Indicator: TA1535, Metabolic Activation: RAT LIVER S-9, PHENOBARBITAL AND BETA-NAPHTHOFLAVONE, Method: PREINCUBATION
[11] = Test System: AMES SALMONELLA TYPHIMURIUM, Strain/Indicator: TA1537, Metabolic Activation: NONE, Method: PREINCUBATION
[12] = Test System: AMES SALMONELLA TYPHIMURIUM, Strain/Indicator: TA1537, Metabolic Activation: RAT LIVER S-9, PHENOBARBITAL AND BETA-NAPHTHOFLAVONE, Method: PREINCUBATION
[13] = Test System: E.COLI, Strain/Indicator: WP2UVRA, Metabolic Activation: NONE, Method: PREINCUBATION
[14] = Test System: E.COLI, Strain/Indicator: WP2UVRA, Metabolic Activation: RAT LIVER S-9, PHENOBARBITAL AND BETA-NAPHTHOFLAVONE, Method: PREINCUBATION
[15] = Test System: E.COLI, Strain/Indicator: WP2UVRA/PKM101, Metabolic Activation: NONE, Method: PREINCUBATION
[16] = Test System: E.COLI, Strain/Indicator: WP2UVRA/PKM101, Metabolic Activation: RAT LIVER S-9, PHENOBARBITAL AND BETA-NAPHTHOFLAVONE, Method: PREINCUBATION

## Cc1c2ccncc2c(C)c2c1[nH]c1ccccc12
[1]
  mutagenic call: active; positive
[2]
  mutagenic call: active; positive
Test System: CHINESE HAMSTER V-79, Strain/Indicator: V-79 (HPRT)/6-THIOGUANINE, Metabolic Activation: NONE
  mutagenic call: inactive; negative
Test System: E. COLI, Strain/Indicator: WP2 TM9, Metabolic Activation: NONE, Method: STANDARD PLATE
  mutagenic call: inactive; negative
Test System: MOUSE LYMPHOMA, Strain/Indicator: L5178Y (HPRT)/6-THIOGUANINE, Metabolic Activation: NONE, Method: FLUCTUATION TEST
  mutagenic call: inactive; negative
Test System: MOUSE LYMPHOMA, Strain/Indicator: L5178Y (TK+/TK-), Metabolic Activation: NONE, Method: FLUCTUATION TEST
  mutagenic call: active; positive
Test System: MOUSE LYMPHOMA, Strain/Indicator: L5178Y (TK+/TK-), Metabolic Activation: NONE, Method: SUSPENSION/PLATE
  mutagenic call: active; positive
Test System: Mouse lymphoma, Strain/Indicator: L5178Y (tk+/tk-), Metabolic Activation: None, Method: Suspension/plate
  mutagenic call: active; positive
Test System: Mouse lymphoma, Strain/Indicator: L5178Y (tk+/tk-), Metabolic Activation: Rat, Liver, S-9, Aroclor 1254, Method: Suspension/plate
  mutagenic call: active; positive

## CN(C)CCCNc1c2ccccc2nc2c(N(C)C)ccc([N+](=O)[O-])c12
[3]
  mutagenic call: active; positive
[4]
  mutagenic call: active; positive

## CCCCOO
[4]
  mutagenic call: inactive; negative
[2]
  mutagenic call: active; positive

## C1CN(SSN2CCOCC2)CCO1
[5]
  mutagenic call: inactive; negative
[6]
  mutagenic call: inactive; negative
[7]
  mutagenic call: inactive; negative
[8]
  mutagenic call: inactive; negative
[9]
  mutagenic call: inactive; negative
[10]
  mutagenic call: inactive; negative
[11]
  mutagenic call: inactive; negative
[12]
  mutagenic call: inactive; negative
Test System: AMES SALMONELLA TYPHIMURIUM, Strain/Indicator: TA1538, Metabolic Activation: NONE, Method: PREINCUBATION
  mutagenic call: inactive; negative
Test System: AMES SALMONELLA TYPHIMURIUM, Strain/Indicator: TA1538, Metabolic Activation: RAT LIVER S-9, PHENOBARBITAL AND BETA-NAPHTHOFLAVONE, Method: PREINCUBATION
  mutagenic call: inactive; negative
[13]
  mutagenic call: inactive; negative
[14]
  mutagenic call: inactive; negative

## CN=C1C=CC(=C(c2ccc(NC)cc2)c2ccc(N(C)C)cc2)C=C1
Test System: AMES SALMONELLA TYPHIMURIUM, Strain/Indicator: TA97, Metabolic Activation: NONE, Method: STANDARD PLATE
  mutagenic call: inactive; negative
Test System: AMES SALMONELLA TYPHIMURIUM, Strain/Indicator: TA97, Metabolic Activation: RAT, LIVER, S-9, AROCLOR 1254, Method: STANDARD PLATE
  mutagenic call: inactive; negative
[3]
  mutagenic call: inactive; negative
[1]
  mutagenic call: inactive; negative
[4]
  mutagenic call: inactive; negative
Test System: AMES SALMONELLA TYPHIMURIUM, Strain/Indicator: TA100, Metabolic Activation: RAT, LIVER, S-9, AROCLOR 1254, Method: STANDARD PLATE
  mutagenic call: inactive; negative
Test System: AMES SALMONELLA TYPHIMURIUM, Strain/Indicator: TA104, Metabolic Activation: NONE, Method: STANDARD PLATE
  mutagenic call: inactive; negative
Test System: AMES SALMONELLA TYPHIMURIUM, Strain/Indicator: TA104, Metabolic Activation: RAT, LIVER, S-9, AROCLOR 1254, Method: STANDARD PLATE
  mutagenic call: inactive; negative

## OCCCCCCO
[5]
  mutagenic call: inactive; negative
[6]
  mutagenic call: inactive; negative
[7]
  mutagenic call: inactive; negative
[8]
  mutagenic call: inactive; negative
[9]
  mutagenic call: inactive; negative
[10]
  mutagenic call: inactive; negative
[11]
  mutagenic call: inactive; negative
[12]
  mutagenic call: inactive; negative
[15]
  mutagenic call: inactive; negative
[16]
  mutagenic call: inactive; negative

## CCNNCC
[5]
  mutagenic call: inactive; negative
[6]
  mutagenic call: inactive; negative
[7]
  mutagenic call: inactive; negative
Test System: AMES SALMONELLA TYPHIMURIUM, Strain/Indicator: TA100, Metabolic Activation: NONE, Method: PREINCUBATION (11 HR GROWTH PERIOD FOR BACTERIA)
  mutagenic call: active; positive
[8]
  mutagenic call: inactive; negative
Test System: AMES SALMONELLA TYPHIMURIUM, Strain/Indicator: TA100, Metabolic Activation: RAT, LIVER, S-9, PCB, Method: PREINCUBATION (11 HR GROWTH PERIOD FOR BACTERIA)
  mutagenic call: inactive; negative
Test System: AMES SALMONELLA TYPHIMURIUM, Strain/Indicator: TA102, Metabolic Activation: NONE, Method: PREINCUBATION
  mutagenic call: inactive; negative
Test System: AMES SALMONELLA TYPHIMURIUM, Strain/Indicator: TA102, Metabolic Activation: NONE, Method: PREINCUBATION (5 OR 7 HR GROWTH PERIOD FOR BACTERIA)
  mutagenic call: active; positive
Test System: AMES SALMONELLA TYPHIMURIUM, Strain/Indicator: TA102, Metabolic Activation: NONE, Method: PREINCUBATION (11 HR GROWTH PERIOD FOR BACTERIA)
  mutagenic call: inactive; negative
Test System: AMES SALMONELLA TYPHIMURIUM, Strain/Indicator: TA102, Metabolic Activation: RAT LIVER S-9, PHENOBARBITAL AND BETA-NAPHTHOFLAVONE, Method: PREINCUBATION
  mutagenic call: inactive; negative
Test System: AMES SALMONELLA TYPHIMURIUM, Strain/Indicator: TA102, Metabolic Activation: RAT, LIVER, S-9, PCB, Method: PREINCUBATION (5 OR 7 HR GROWTH PERIOD FOR BACTERIA)
  mutagenic call: inactive; negative
Test System: AMES SALMONELLA TYPHIMURIUM, Strain/Indicator: TA104, Metabolic Activation: NONE, Method: PREINCUBATION
  mutagenic call: inactive; negative
Test System: AMES SALMONELLA TYPHIMURIUM, Strain/Indicator: TA104, Metabolic Activation: RAT LIVER S-9, PHENOBARBITAL AND BETA-NAPHTHOFLAVONE, Method: PREINCUBATION
  mutagenic call: inactive; negative
[9]
  mutagenic call: inactive; negative
[10]
  mutagenic call: inactive; negative
[11]
  mutagenic call: inactive; negative
[12]
  mutagenic call: inactive; negative
[15]
  mutagenic call: inactive; negative
[16]
  mutagenic call: inactive; negative
[13]
  mutagenic call: inactive; negative
[14]
  mutagenic call: inactive; negative

Reference: PubChem BioAssay AID1259407 (Chemical Carcinogenesis Research Information System (CCRIS), 2018)
